Experimental data reported in patent US20230158025A1 (UNIVERSITY OF UTAH RESEARCH FOUNDATION, priority 2020, published 2023).
Read-outs that look alike come from different tables or passages of the source.

Assays:
recombinant human GALK1 = recombinant human GALK1 (Homo sapiens, UniProt P51570); assay: hGALK1 biochemical activity assay (Kinase-Glo Plus, ATP depletion)
Method in brief: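 Turnover is measured as ATP depletion by Kinase-Glo Plus luminescence after a 1 h room-temperature reaction. Compounds span 11 concentrations, 57.4 μM–0.97 nM, in final 20 mM HEPES pH 8.0 with 5 mM MgCl2. The substrate solution held 35 μM ATP; the added solution held 5 nM human or mouse GALK1 and 100 μM galactose.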

recombinant mouse GALK1 = recombinant mouse GALK1 (Mus musculus, UniProt Q9R0N0); assay: mGALK1 biochemical activity assay (Kinase-Glo Plus, ATP depletion)
Chain of recombinant mouse GALK1 (Q9R0N0 whole entry): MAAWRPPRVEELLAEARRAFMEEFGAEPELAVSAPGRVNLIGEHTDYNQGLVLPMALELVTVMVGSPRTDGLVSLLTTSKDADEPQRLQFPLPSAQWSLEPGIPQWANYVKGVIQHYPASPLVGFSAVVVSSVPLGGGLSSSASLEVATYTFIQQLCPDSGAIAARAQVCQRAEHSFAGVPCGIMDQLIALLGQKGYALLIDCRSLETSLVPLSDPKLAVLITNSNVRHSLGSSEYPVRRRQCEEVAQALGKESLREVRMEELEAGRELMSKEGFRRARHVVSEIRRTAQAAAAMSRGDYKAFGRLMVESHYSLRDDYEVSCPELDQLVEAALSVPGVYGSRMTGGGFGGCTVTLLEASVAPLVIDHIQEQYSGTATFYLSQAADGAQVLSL
Method in brief: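 Recombinant GALK1 (5 nM) with 100 μM galactose; GALK1 turnover read as ATP depletion by Kinase-Glo Plus luminescence. Reaction ran 1 h at room temperature before detection reagent was added.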

[1] = rat microsomal stability (RLM)
[2] = aqueous kinetic solubility
[3] = recombinant human GALK1, Kinase-Glo Plus ATP depletion, read-out: hGALK
[4] = recombinant mouse GALK1, Kinase-Glo Plus ATP depletion, read-out: mGALK
[5] = Tables 2-15, 35 μM ATP, 100 μM galactose, 1 h, bracketed figure after some values (e.g. −1.2) is undefined and not reported, read-out: hGALK IC50
[6] = Tables 2-15, 35 μM ATP, 100 μM galactose, 1 h, bracketed figure after some values is undefined and not reported, read-out: mGALK IC50

Chain of recombinant human GALK1 (P51570 whole entry): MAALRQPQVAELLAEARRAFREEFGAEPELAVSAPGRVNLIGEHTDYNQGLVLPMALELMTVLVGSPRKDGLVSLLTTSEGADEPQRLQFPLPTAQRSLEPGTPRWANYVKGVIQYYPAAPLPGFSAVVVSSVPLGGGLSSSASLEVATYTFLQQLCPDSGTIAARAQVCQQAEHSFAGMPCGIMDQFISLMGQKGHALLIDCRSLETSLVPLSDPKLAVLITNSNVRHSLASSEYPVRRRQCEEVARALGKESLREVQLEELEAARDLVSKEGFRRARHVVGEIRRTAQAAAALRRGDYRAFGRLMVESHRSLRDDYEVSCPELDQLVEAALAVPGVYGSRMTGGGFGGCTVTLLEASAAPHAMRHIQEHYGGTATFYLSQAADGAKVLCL

| Perm. (1 × 10^−6 cm/sec) (PAMPA permeability; PAMPA) | IC50 (recombinant human GALK1; [3]) [µM] | IC50 (recombinant mouse GALK1; [4]) [µM] | Metab. Stabil. (m) ([1]; microsomal stability half-life) | Sol. ([2]; aqueous kinetic solubility) [µg/mL] | Perm. (1 × 10^−6 cm/sec) (PAMPA permeability) | IC50 (recombinant human GALK1; [5]) [µM] | IC50 (recombinant mouse GALK1; [6]) [µM] | Metab. Stabil. (m) ([1]; microsomal half-life) | Sol. [2] [µg/mL] | IC50 (recombinant human GALK1; recombinant human GALK1, Kinase-Glo Plus ATP depletion, bracketed figure in the cell, e.g. (−1.2), is not defined in the text shown, read-out: hGALK) [µM] | IC50 (recombinant mouse GALK1; recombinant mouse GALK1, Kinase-Glo Plus ATP depletion, bracketed figure in the cell, e.g. (−1.2), is not defined in the text shown, read-out: mGALK) [µM] | Metab. Stabil. (m) ([1]; microsomal stability half-life, minutes) | hGALK IC50 (recombinant human GALK1; Tables 2-15, 35 μM ATP, 100 μM galactose, 1 h, bracketed figure after some values (e.g. −1.2) is undefined and not reported) | hGALK (μM) (recombinant human GALK1; recombinant human GALK1, Kinase-Glo Plus ATP depletion) | mGALK IC50 (recombinant mouse GALK1; Tables 2-15, 35 μM ATP, 100 μM galactose, 1 h, bracketed figure after some values is undefined and not reported) | mGALK (μM) (recombinant mouse GALK1; recombinant mouse GALK1, Kinase-Glo Plus ATP depletion) | Structure (SMILES) |
| --- | --- | --- | --- | --- | --- | --- | --- | --- | --- | --- | --- | --- | --- | --- | --- | --- | --- |
| 766.1 1 × 10^−6 cm/sec | 4.85 | 7.69 | >30 | <1 | – | – | – | – | – | – | – | – | – | – | – | – | CC1=C(C(=O)Nc2ccc(CO)nc2)C(c2ccccc2Cl)N=C(Nc2nc3ccccc3o2)N1 (stereo not drawn) [Compound 165, 2-(benzo[d]oxazol-2-ylamino)-4-(2-chlorophenyl)-N-(6-(hydroxymethyl)pyridin-3-yl)-6-methyl-1,4-dihydropyrimidine-5-carboxamide] |
| 109.6 1 × 10^−6 cm/sec | 3.06 | 9.68 | >30 | <1 | – | 3.06 | 9.68 | – | – | – | – | – | – | – | – | – | CC1=C(C(=O)Nc2cc(CO)ccn2)C(c2ccccc2Cl)N=C(Nc2nc3ccccc3o2)N1 (stereo not drawn) [Compound 211, 2-(benzo[d]oxazol-2-ylamino)-4-(2-chlorophenyl)-N-(4-(hydroxymethyl)pyridin-2-yl)-6-methyl-1,4-dihydropyrimidine-5-carboxamide] |
| – | 19.3 | 38.5 | – | – | 31.0 1 × 10^−6 cm/sec | 19.3 | 38.5 | >30 | 7.3 | – | – | – | – | – | – | – | CC1=C(C(=O)Nc2cc(C(=O)O)ccn2)C(c2ccccc2Cl)N=C(Nc2nc3cccc([N+](=O)[O-])c3o2)N1 (stereo not drawn) [Compound 23, 2-(4-(2-chlorophenyl)-6-methyl-2-((7-nitrobenzo[d]oxazol-2-yl)amino)-1,4-dihydropyrimidine-5-carboxamido)isonicotinic acid] |
| 306.7 1 × 10^−6 cm/sec | 3.43 | 6.85 | 19.99 | <1 | – | – | – | – | – | – | – | – | – | – | – | – | COC(=O)c1ccnc(NC(=O)C2=C(C)NC(Nc3nc4ccccc4o3)=N[C@H]2c2ccccc2Cl)c1 [Compound 206, (R)-methyl 2-(2-(benzo[d]oxazol-2-ylamino)-4-(2-chlorophenyl)-6-methyl-1,4-dihydropyrimidine-5-carboxamido)isonicotinate] |
| 246.9 1 × 10^−6 cm/sec | 21.7 | – | >30 | <1 | – | 21 | – | – | – | – | – | – | – | – | – | – | COC(=O)c1cncc(NC(=O)C2=C(C)NC(Nc3nc4ccccc4o3)=NC2c2ccccc2Cl)c1 (stereo not drawn) [Compound 188, methyl 5-(2-(benzo[d]oxazol-2-ylamino)-4-(2-chlorophenyl)-6-methyl-1,4-dihydropyrimidine-5-carboxamido)nicotinate] |

The remaining lines, values behind:

| Structure (SMILES) | Perm. (1 × 10^−6 cm/sec) (PAMPA permeability; PAMPA) | IC50 (recombinant human GALK1; [3]) [µM] | IC50 (recombinant mouse GALK1; [4]) [µM] | Metab. Stabil. (m) ([1]; microsomal stability half-life) | Sol. ([2]; aqueous kinetic solubility) [µg/mL] | Perm. (1 × 10^−6 cm/sec) (PAMPA permeability) | IC50 (recombinant human GALK1; [5]) [µM] | IC50 (recombinant mouse GALK1; [6]) [µM] | Metab. Stabil. (m) ([1]; microsomal half-life) | Sol. [2] [µg/mL] | IC50 (recombinant human GALK1; recombinant human GALK1, Kinase-Glo Plus ATP depletion, bracketed figure in the cell, e.g. (−1.2), is not defined in the text shown, read-out: hGALK) [µM] | IC50 (recombinant mouse GALK1; recombinant mouse GALK1, Kinase-Glo Plus ATP depletion, bracketed figure in the cell, e.g. (−1.2), is not defined in the text shown, read-out: mGALK) [µM] | Metab. Stabil. (m) ([1]; microsomal stability half-life, minutes) | hGALK IC50 (recombinant human GALK1; Tables 2-15, 35 μM ATP, 100 μM galactose, 1 h, bracketed figure after some values (e.g. −1.2) is undefined and not reported) | hGALK (μM) (recombinant human GALK1; recombinant human GALK1, Kinase-Glo Plus ATP depletion) | mGALK IC50 (recombinant mouse GALK1; Tables 2-15, 35 μM ATP, 100 μM galactose, 1 h, bracketed figure after some values is undefined and not reported) | mGALK (μM) (recombinant mouse GALK1; recombinant mouse GALK1, Kinase-Glo Plus ATP depletion) |
| --- | --- | --- | --- | --- | --- | --- | --- | --- | --- | --- | --- | --- | --- | --- | --- | --- | --- |
| CC1=C(C(=O)Nc2cc(C(=O)O)ccn2)[C@H](c2ccc(C)cc2Cl)N=C(Nc2nc3ccc(F)cc3o2)N1 [Compound 55, (R)-2-(4-(2-chloro-4-methylphenyl)-2-((6-fluorobenzo[d]oxazol-2-yl)amino)-6-methyl-1,4-dihydropyrimidine-5-carboxamido)isonicotinic acid] | – | 0.15 | 1.37 | – | – | <1 1 × 10^−6 cm/sec | 15 | 1.37 | >30 | >79 | – | – | – | – | – | – | – |
| CC1=C(C(=O)Nc2cc(C(=O)O)ccn2)C(c2ccc(-c3ccc(C(F)(F)F)nc3)cc2Cl)N=C(Nc2nc3ccc(F)cc3o2)N1 (stereo not drawn) [Compound 70, 2-(4-(2-chloro-4-(6-(trifluoromethyl)pyridin-3-yl)phenyl)-2-((6-fluorobenzo[d]oxazol-2-yl)amino)-6-methyl-1,4-dihydropyrimidine-5-carboxamido)isonicotinic acid] | – | 1.21 | 3.85 | – | – | <1 1 × 10^−6 cm/sec | 1.21 | 3.85 | >30 | 28.6 | – | – | – | – | – | – | – |
| COc1ccc(C2N=C(Nc3nc4ccccc4o3)NC(C)=C2C(=O)Nc2nncs2)c(Cl)c1 (stereo not drawn) [Compound 266, 2-(benzo[d]oxazol-2-ylamino)-4-(2-chloro-4-methoxyphenyl)-6-methyl-N-(1,3,4-thiadiazol-2-yl)-1,4-dihydropyrimidine-5-carboxamide] | 31.9 1 × 10^−6 cm/sec | – | – | – | <1 | – | – | – | – | – | 3.85 | 5.44 | >30 | – | – | – | – |
| CC1=C(C(=O)NCc2ccc(Cl)cc2)C(c2ccccc2Cl)N=C(Nc2nc3ccccc3o2)N1 (stereo not drawn) [Compound 218, 2-(benzo[d]oxazol-2-ylamino)-4-(2-chlorophenyl)-N-(4-chlorobenzyl)-6-methyl-1,4-dihydropyrimidine-5-carboxamide] | 25.8 1 × 10^−6 cm/sec | – | – | 11.91 | <1 | – | – | – | – | – | – | – | – | inactive | in- active | inactive | in- active |
| CC1=C(C(=O)NCc2cccc(CO)c2)C(c2ccccc2Cl)N=C(Nc2nc3ccccc3o2)N1 (stereo not drawn) [Compound 227, 2-(benzo[d]oxazol-2-ylamino)-4-(2-chlorophenyl)-N-(3-(hydroxymethyl)benzyl)-6-methyl-1,4-dihydropyrimidine-5-carboxamide] | 868.8 1 × 10^−6 cm/sec | 4.85 | 12.2 | 6.574 | <1 | – | – | 12.2 | – | – | – | – | – | – | – | – | – |
| COc1ccc([C@H]2N=C(Nc3nc4cccc(N)c4o3)NC(C)=C2C(=O)Nc2cc(C(=O)O)ccn2)c(Cl)c1 [Compound 86, (S)-2-(2-((7-aminobenzo[d]oxazol-2-yl)amino)-4-(2-chloro-4-methoxyphenyl)-6-methyl-1,4-dihydropyrimidine-5-carboxamido)isonicotinic acid] | – | 5.44 | 34.3 | – | – | <1 1 × 10^−6 cm/sec | 5.44 | 34.3 | >30 | >81 | – | – | – | – | – | – | – |
| CC1=C(C(=O)Nc2ccc(CO)cc2)C(c2ccccc2Cl)N=C(Nc2nc3ccccc3o2)N1 (stereo not drawn) [Compound 160, 2-(benzo[d]oxazol-2-ylamino)-4-(2-chlorophenyl)-N-(4-(hydroxymethyl)phenyl)-6-methyl-1,4-dihydropyrimidine-5-carboxamide] | 863.9 1 × 10^−6 cm/sec | – | – | >30 | <1 | – | 17.2 | – | – | – | – | – | – | – | – | – | – |
